Measurements reported in ChEMBL document CHEMBL1201862, “PubChem BioAssay data set” (2004).
Activity calls are given as the source filed them.

How the values were obtained:
Cytochrome P450 3A4 [1] = target: T1, Cytochrome P450 3A4 (Homo sapiens, UniProt P08684); conditions: Potency
[2] = target: Induced myeloid leukemia cell differentiation protein Mcl-1 (Homo sapiens, UniProt Q07820); assay: blockers of MCL1 binding to BIM peptide – biochemical, fluorescence polarization, BIM-BH3 peptide, 1536-well, dose response (AID 2217)
Bcl-2-like protein 1 = Bcl-2-like protein 1 (Homo sapiens, UniProt Q07817); assay: blockers of BCLXL peptide binding – biochemical, fluorescence polarization, 1536-well, selectivity assay for MCL1 inhibitor project, dose response (AID 2218)
[3] = target: Neurotensin receptor type 1 (Homo sapiens, UniProt P30989); type: functional;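 note: Image-based confirmatory dose-response assay measuring agonist activity at NTR1; NTR1-expressing U2OS osteosarcoma cells imaged for beta-arrestin GFP spot formation; agonist potency where compounds increase beta-arrestin recruitment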
[4] = Trypanosoma cruzi growth suppression in host cells – NIH3T3 host cells, beta-gal luminescence, confirmation (AID 2044); type: functional, cell-based;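 note: intracellular parasites grown in NIH/3T3 mouse fibroblasts as host cells; luminescent beta-galactosidase reporter signal from transgenic T. cruzi replicating inside host cells; inhibitors lower the luminescence signal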
[5] = NIH3T3 cell viability loss – ATP luminescence, mouse fibroblasts, counter-screen, dose response (AID 2010); type: functional, cell-based;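 note: cells exposed to compound for about 90 hours before reading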
cells [6] = assay: cells
[7] = target: T2, Neuropeptide Y receptor type 1 (Homo sapiens, UniProt P25929); type: functional;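 note: HEK293 cells with a CNG channel challenged with NPY then isoproterenol; potency as antagonist that reverses NPY suppression of cAMP signal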
T2 sequence (P25929 whole entry): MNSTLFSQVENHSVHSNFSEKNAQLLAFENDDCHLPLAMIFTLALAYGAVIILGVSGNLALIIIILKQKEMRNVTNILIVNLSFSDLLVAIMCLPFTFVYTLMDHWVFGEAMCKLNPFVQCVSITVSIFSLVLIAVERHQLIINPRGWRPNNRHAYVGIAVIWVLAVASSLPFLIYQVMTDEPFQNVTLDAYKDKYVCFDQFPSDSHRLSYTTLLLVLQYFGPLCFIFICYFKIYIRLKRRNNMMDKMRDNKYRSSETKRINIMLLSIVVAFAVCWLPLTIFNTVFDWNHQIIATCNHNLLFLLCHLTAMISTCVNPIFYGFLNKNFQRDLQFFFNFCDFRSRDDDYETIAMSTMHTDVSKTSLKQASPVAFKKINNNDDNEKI

[8] = target: Luciferin 4-monooxygenase (Photinus pyralis, UniProt P08659); assay: inhibition of purified Photinus pyralis luciferase – biochemical, luminescence, dose response (AID 1891)
[9] = Luminescence Cell-Based Dose Confirmation HTS to Identify Inhibitors of Platelet Dense Granule Release. [Related pubchem assays: 1663 (Primary HTS), 1678 (Summary of Project)]; type: functional
[10] = microbe, parasite or virus in culture; type: functional; conditions: Mycobacterium tuberculosis
[11] = target: T3, Neuropeptide Y receptor type 2 (Homo sapiens, UniProt P49146); type: functional, cell-based;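 note: HEK293 cells expressing the receptor and a CNG channel; stimulus was NPY near EC95 followed by isoproterenol to raise cAMP; antagonist potency measured as restoring cAMP signal that NPY suppresses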
T3 sequence (P49146 whole entry): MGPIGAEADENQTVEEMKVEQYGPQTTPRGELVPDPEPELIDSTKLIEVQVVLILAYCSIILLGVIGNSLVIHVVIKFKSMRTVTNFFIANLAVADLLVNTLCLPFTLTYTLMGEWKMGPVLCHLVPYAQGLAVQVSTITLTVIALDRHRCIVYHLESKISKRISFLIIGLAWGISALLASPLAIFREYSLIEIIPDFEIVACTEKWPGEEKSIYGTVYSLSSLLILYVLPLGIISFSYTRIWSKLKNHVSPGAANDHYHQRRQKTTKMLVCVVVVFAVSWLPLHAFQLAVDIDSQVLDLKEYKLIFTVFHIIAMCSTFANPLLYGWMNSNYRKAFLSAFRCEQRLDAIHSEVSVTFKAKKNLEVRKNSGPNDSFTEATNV

[12] = target: Heat shock protein HSP 90-alpha (Homo sapiens, UniProt P07900); type: functional, organism-based
Estrogen receptor = target: T4, Estrogen receptor (Homo sapiens, UniProt P03372);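 note: potency for inhibiting coactivator peptide recruitment to the receptor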
T4 sequence (P03372 whole entry): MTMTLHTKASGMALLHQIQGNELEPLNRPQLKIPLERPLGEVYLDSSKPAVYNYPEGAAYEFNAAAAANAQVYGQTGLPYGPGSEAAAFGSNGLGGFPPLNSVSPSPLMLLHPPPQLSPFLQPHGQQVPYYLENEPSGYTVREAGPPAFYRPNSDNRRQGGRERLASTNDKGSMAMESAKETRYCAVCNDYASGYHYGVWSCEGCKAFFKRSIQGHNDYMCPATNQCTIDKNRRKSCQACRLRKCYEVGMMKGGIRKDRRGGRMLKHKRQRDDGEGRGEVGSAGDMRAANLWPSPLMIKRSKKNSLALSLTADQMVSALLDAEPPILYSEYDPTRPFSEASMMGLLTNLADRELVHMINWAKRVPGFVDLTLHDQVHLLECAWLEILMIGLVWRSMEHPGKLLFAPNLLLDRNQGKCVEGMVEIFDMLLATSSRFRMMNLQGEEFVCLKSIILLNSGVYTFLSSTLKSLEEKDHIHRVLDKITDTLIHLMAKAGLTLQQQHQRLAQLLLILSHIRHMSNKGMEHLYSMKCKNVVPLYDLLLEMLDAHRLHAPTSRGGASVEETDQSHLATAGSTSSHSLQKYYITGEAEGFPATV

Estrogen receptor beta = Estrogen receptor beta (Homo sapiens, UniProt Q92731);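 note: recombinant ER-beta bound to coactivator SRC1 peptide in presence of estradiol agonist; inhibitors block coactivator peptide binding and lower the FRET signal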
[13] = luciferase reporter signal suppression in cells – H4 neuroglioma cells, luminescence, dose response (AID 1990); type: functional, cell-based
BJ [14] = assay: BJ-TERT fibroblast viability loss – cell-based, RAS-independent, luminescence, dose response (AID 1933); type: functional; conditions: Homo sapiens
[15] = Luminescence Cell-Based Dose Response HTS to Identify Inhibitors of 5'UTR Stem-Loop Driven Prion Protein mRNA Translation in H4 Neuroglioblastoma Cells. [Related pubchem assays: 1827 (Project Summary), 1813 (Primary HTS)]; type: functional
[16] = alpha-synuclein stem-loop luciferase translation blockers – H4 neuroglioma cells, luminescence, confirmation (AID 1988); type: functional, cell-based
BJ [17] = assay: cells; type: functional, cell-based; conditions: Homo sapiens
[18] = viability of PTEN-deleted HCT116 cells – cell-based, HCT116 PTEN knockout, dose response (AID 1047); type: functional;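 note: HCT116 colon tumor cells with PTEN knocked out; cells exposed to compound for 60 hours before readout; potency for loss of cell viability measured by luminescence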
[19] = viability of HCT116 lacking mutant beta-catenin – cell-based, human colon tumor, dose response (AID 1045); type: functional;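 note: HCT116 colon tumor cells with beta catenin knocked out; cells exposed to compound for 60 hours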
BJ [20] = assay: BJ-TERT-LT-ST fibroblast viability loss – cell-based, RAS-independent, luminescence, dose response (AID 1935); type: functional; conditions: Homo sapiens;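 note: BJ fibroblasts immortalized with TERT plus LT and ST oncogenes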
[21] = DRD fibroblast viability loss – cell-based, non-viral oncogenic, luminescence, dose response (AID 1934); type: functional; conditions: Homo sapiens
[22] = THP-1 cell cytotoxicity, dose response, cytotoxicity control for non-replicating M. tuberculosis project (AID 489025); type: functional
[23] = HepG2 cell cytotoxicity, dose response, cytotoxicity control for non-replicating M. tuberculosis project (AID 489018); type: functional; conditions: Mycobacterium tuberculosis
[24] = Vero E6 cell cytotoxicity, dose response, cytotoxicity control for non-replicating M. tuberculosis project, secondary assay (AID 492998); type: functional, VeroE6; conditions: Vero C1008
[25] = target: T5, Heat shock factor protein 1 (Mus musculus, UniProt P38532); assay: enhancement of HSF1-driven luciferase signal – cell-based, NIH3T3, luminescence, dose retest, confirmation (AID 435004); type: functional;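 note: stress induced by proteasome inhibitor MG132 added 30 min after compound; luciferase reporter driven by HSF1 response element in NIH3T3 cells; actives raise luminescence as potentiators of the MG132 stress response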
T5 sequence (P38532 whole entry): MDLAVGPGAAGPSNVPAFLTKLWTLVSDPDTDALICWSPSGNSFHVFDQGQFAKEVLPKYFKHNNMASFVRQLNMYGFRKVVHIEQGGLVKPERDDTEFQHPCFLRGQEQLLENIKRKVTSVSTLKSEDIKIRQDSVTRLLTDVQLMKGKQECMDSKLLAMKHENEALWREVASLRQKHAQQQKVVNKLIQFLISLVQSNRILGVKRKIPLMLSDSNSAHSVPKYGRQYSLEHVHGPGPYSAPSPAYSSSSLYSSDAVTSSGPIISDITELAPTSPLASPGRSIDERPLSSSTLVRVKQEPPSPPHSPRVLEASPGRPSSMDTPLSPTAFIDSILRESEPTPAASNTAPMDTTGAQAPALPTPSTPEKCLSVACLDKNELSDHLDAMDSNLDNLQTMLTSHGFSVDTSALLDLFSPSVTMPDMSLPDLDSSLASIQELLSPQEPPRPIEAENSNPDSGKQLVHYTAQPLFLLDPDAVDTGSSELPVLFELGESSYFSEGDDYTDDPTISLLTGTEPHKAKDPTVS

cells [26] = type: functional
BJ [27] = assay: growth inhibition of engineered Ras-driven BJ cells – cell-based, alamar blue fluorescence, cherrypicked samples, dose response (AID 2631); type: functional; conditions: Homo sapiens;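 note: confirmatory dose-response assay in RAS-dependent BJ fibroblasts engineered with TERT, LT and ST, with cytotoxicity read by fluorescence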
INS1 = assay: INS-1E survival protection against cytokine death – cell-based, luminescence, retest, dose response (AID 449756); type: functional; conditions: Rattus norvegicus;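 note: cell death triggered by IL-1 beta plus TNF-alpha plus IFN-gamma mixture; protective hits raise ATP signal compared with cytokine alone wells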
[28] = reduction of Shn3 3'UTR-driven luciferase in osteoblasts – cell-based, Clone20 osteoblasts, firefly luciferase, cherry-picked, dose response (AID 624132); type: functional;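 note: firefly luciferase luminescence from reporter carrying the Shn3 3'UTR in osteoblasts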
[29] = loss of viability in HepG2 cells – cell-based, CellTiter-Glo, cherry-picked, cytotoxicity control for Shn3 inhibitor project, dose response (AID 624134); type: functional
[30] = non-specific 3'UTR reporter inhibition in Clone20-Shn3RL – cell-based, Renilla luciferase, cherry-picked, counter-screen for Shn3 inhibitor project, dose response (AID 624133); type: functional
Cytochrome P450 2D6 = Cytochrome P450 2D6 (Homo sapiens, UniProt P10635);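 note: CYP2D6 member of a cytochrome P450 panel assay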
Cytochrome P450 3A4 [31] = target: T1, Cytochrome P450 3A4

T1 sequence (P08684 whole entry): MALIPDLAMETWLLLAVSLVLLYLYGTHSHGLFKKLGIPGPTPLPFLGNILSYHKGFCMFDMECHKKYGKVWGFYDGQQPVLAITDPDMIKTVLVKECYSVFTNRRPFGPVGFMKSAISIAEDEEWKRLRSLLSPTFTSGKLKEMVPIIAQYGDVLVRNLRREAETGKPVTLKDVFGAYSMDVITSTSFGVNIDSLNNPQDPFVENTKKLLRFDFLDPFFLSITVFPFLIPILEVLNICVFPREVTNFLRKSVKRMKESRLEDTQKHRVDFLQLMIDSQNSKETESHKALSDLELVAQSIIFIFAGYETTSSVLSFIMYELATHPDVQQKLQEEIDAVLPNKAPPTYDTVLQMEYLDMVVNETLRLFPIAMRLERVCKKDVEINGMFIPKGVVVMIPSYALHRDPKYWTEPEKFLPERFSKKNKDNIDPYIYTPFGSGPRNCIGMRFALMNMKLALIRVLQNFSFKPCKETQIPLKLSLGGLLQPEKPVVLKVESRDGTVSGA
Chain of Neurotensin receptor type 1 (P30989 whole entry): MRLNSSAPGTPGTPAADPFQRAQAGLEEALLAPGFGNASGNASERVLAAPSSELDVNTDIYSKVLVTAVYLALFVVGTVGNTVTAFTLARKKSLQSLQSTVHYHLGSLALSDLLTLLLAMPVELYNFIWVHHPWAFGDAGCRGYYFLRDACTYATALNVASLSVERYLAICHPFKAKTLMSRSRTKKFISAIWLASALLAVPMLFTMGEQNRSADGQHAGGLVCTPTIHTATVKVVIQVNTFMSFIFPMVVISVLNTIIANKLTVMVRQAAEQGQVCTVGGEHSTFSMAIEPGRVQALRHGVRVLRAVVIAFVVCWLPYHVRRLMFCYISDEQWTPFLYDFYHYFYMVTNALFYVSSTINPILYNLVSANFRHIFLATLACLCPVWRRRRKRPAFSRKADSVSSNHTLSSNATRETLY
Chain of Induced myeloid leukemia cell differentiation protein Mcl-1 (Q07820 whole entry): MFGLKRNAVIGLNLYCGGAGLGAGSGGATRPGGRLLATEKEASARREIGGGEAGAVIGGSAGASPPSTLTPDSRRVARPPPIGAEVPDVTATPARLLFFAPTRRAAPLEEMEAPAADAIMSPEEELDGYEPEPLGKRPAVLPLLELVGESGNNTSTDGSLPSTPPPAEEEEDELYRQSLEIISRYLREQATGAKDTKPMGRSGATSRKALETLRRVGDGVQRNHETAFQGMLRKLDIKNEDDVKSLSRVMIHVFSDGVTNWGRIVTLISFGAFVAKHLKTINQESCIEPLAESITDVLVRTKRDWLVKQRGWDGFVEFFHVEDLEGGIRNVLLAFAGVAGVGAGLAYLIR
Chain of Estrogen receptor beta (Q92731 whole entry): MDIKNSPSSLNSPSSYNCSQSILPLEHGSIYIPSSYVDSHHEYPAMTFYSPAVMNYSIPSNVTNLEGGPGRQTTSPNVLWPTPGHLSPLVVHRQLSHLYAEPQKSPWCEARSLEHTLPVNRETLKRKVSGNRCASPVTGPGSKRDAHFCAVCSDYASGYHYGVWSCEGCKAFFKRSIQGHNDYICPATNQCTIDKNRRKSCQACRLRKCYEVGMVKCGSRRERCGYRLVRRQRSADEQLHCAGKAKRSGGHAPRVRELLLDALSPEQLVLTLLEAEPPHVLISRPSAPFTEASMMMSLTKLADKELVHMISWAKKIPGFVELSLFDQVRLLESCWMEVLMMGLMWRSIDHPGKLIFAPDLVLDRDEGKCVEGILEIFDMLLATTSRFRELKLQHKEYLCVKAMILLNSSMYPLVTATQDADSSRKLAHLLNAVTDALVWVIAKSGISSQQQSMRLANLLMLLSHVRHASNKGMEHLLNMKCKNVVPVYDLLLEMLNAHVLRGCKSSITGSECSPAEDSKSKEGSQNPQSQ
Chain of Bcl-2-like protein 1 (Q07817 whole entry): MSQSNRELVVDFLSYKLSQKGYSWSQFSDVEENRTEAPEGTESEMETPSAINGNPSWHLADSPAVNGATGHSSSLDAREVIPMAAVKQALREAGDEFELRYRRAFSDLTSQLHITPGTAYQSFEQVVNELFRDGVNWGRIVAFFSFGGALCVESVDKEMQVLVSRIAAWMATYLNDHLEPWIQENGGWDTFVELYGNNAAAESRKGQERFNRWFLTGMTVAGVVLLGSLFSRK
Chain of Cytochrome P450 2D6 (P10635 whole entry): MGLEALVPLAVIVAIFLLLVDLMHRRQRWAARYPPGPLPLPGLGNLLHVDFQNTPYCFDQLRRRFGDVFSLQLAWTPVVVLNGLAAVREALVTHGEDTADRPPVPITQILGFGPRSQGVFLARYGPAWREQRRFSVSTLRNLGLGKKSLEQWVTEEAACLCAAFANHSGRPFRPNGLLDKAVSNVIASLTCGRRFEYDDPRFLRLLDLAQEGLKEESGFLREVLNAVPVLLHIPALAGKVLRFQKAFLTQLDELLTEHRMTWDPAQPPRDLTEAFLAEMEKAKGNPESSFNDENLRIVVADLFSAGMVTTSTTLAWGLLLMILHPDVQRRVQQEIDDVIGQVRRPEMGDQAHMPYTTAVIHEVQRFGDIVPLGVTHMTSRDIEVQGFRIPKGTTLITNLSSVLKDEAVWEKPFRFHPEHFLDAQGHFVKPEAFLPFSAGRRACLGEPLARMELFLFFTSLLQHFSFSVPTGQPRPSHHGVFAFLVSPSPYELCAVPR
Chain of Luciferin 4-monooxygenase (P08659 whole entry): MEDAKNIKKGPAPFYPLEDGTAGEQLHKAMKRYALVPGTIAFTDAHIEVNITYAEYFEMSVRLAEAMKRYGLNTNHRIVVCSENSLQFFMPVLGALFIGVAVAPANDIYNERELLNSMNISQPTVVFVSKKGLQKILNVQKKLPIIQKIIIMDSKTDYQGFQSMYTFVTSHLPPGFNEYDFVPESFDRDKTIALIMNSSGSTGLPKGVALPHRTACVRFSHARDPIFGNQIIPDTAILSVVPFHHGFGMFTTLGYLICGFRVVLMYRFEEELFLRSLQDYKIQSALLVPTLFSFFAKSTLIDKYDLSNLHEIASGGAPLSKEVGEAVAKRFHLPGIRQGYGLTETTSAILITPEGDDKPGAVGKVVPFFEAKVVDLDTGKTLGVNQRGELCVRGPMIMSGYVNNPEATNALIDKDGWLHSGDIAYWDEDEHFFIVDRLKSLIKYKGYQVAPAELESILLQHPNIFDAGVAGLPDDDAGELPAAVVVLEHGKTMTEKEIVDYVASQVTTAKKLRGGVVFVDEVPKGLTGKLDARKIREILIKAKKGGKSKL

CCCCCCC1=Cc2cc(OC)c(OC)cc2C(C(C(C)=O)C(=O)OC)O1 (centres undefined)
AC50 (Cytochrome P450 3A4 [1]): 3.16 µM (inconclusive)

C[C@H](NS(=O)(=O)OCC(Cl)(Cl)Cl)C1CC1c1ccccc1 (some centres undefined)
IC50 [2]: 65.4 µM (not active)
IC50 (Bcl-2-like protein 1): > 109 µM (not active)

CC(C)c1ccc(Nc2nnc(SC3CCOC3=O)s2)cc1 (centres undefined)
EC50 [3]: 7.37 µM (active)

O=C(CN(C(=O)c1ccc(Cl)cc1)N1C(=O)C2CCCCC2C1=O)c1ccc(Cl)cc1 (centres undefined)
EC50 [3]: 18 µM (active)

COc1cc(CN2CCCCC2)ccc1OCc1ccccc1
EC50 [4]: < 0.1 µM (active)
EC50 [5]: > 60 µM (not active)
EC50 (cells [6]): 0.67 µM (active)

O=C(COc1ncnc2cc([N+](=O)[O-])ccc12)NCCc1ccc(Cl)cc1
EC50 [4]: < 0.1 µM (active)
EC50 [5]: > 30 µM (not active)
EC50 (cells [6]): 0.377 µM (active)

Cc1nc(N2CCC(C)CC2)c2oc3ccccc3c2n1
IC50 [7]: 7.23 µM (active)
EC50 [8]: 109 µM (active)
EC50 [9]: > 112 µM (not active)
CC50 [10]: > 40 µM (active)
IC50 [11]: 5.77 µM (active)

Cc1sc(NC(=O)c2ccco2)c(C(c2cccnc2)N2CCC(C)CC2)c1C (centres undefined)
EC50 [4]: < 0.1 µM (active)
EC50 [5]: 9.92 µM (active)
AC50 [12]: 4.94 µM (active)
EC50 (cells [6]): 0.182 µM (active)

O=C(CCC(=O)Nc1nnc(C2CCCCC2)s1)NCC1CCCO1 (centres undefined)
IC50 (Estrogen receptor): > 50 µM (not active)
IC50 (Estrogen receptor beta): > 50 µM (not active)

Cn1c(/C=C/c2ccc([N+](=O)[O-])o2)nc2ccccc2c1=O
EC50 [13]: > 120 µM (not active)
EC50 (BJ [14]): 4.06 µM (active)
EC50 [15]: > 120 µM (not active)
EC50 [16]: > 120 µM (not active)
EC50 (BJ [17]): 3.51 µM (inconclusive)
EC50 [18]: < 0.059 µM (active)
EC50 [19]: < 0.059 µM (active)
EC50 (BJ [20]): 2.75 µM (inconclusive)
EC50 [21]: 3.02 µM (active)
CC50 [22]: 1.44 µM (active)
CC50 [23]: 2.67 µM (active)
CC50 [24]: 6.22 µM (active)
EC50 [25]: > 260 µM (inconclusive)
IC50 (cells [26]): 0.78 µM (active)
AC50 [12]: 5 µM (active)
EC50 (BJ [27]): 1.35 µM (active)
AC50 (INS1): 2.55 µM (active)
AC50 [28]: 2.37 µM (active)
AC50 [29]: 10.6 µM (active)
AC50 [30]: 7 µM (active)
AC50 (Cytochrome P450 2D6): 17.8 µM (inconclusive)
AC50 (Cytochrome P450 3A4 [31]): 25.1 µM (inconclusive)
